Data: article PMC9938899, “Rice-memolin, a novel peptide derived from rice bran, improves cognitive function after oral administration in mice” (Scientific Reports, 2023)
Where no end group is shown, it is not given here.

Assays:
mice fed HFD = assay: novel object recognition test (ORT) in mice fed a high-fat diet; assay type: in vivo; conditions: MLA 0.3 mg/kg i.p. with rice-memolin 1 mg/kg p.o. once a day for 3 days, n = 3–5 (Fig. 4)
Experimental: Male ddY mice (11 weeks old) were obtained from SLC (Shizuoka, Japan). They were kept in a temperature-controlled room (23 °C) on a daily 12-h light: 12-h dark cycle. After one week-acclimatization, these mice were fed MF pellets (Oriental Yeast, Tokyo, Japan) as control diet, HFD60 pellets (Oriental Yeast Co., Ltd, Japan) as high-fat diet, or HFD 60 pellets containing 0.04% rice bran protein digest (specially ordered from Oriental Yeast Co., Ltd, Japan) with free access to water for 7 days. The component of HFD60 was previously reported. Animal experiments were conducted in accordance with the Fundamental Guidelines for Proper Conduct of Animal Experiment and Related Activities in Academic Research Institutions under the jurisdiction of the Ministry of Education, Culture, Sports, Science and Technology of Japan, and were approved by the Committee on Animal Experimentation at Kyoto University, Japan. All experiments were approved by the Kyoto University Ethics Committee for Animal Research Use, permission code was R3-13. […]
Cognitive function was evaluated on Day 6 and 7 using two behavioral pharmacological tests: novel object recognition test (ORT) and object location test (OLT). […] Using the ORT, effect of donepezil, a drug currently used for the relief of cognitive deficits associated with mild to moderate Alzheimer’s diseases, was evaluated. […]

pepsin and pancreatin = pepsin and pancreatin digestion of VYTPG with LCMS analysis; assay type: in vitro ADME; conditions: simulated gastrointestinal digestion; each enzyme treatment time 1 h; LCMS analysis (Supplemental Fig. S1)
Experimental: Pepsin and pancreatin digests of VYTPG and LCMS analysis were performed in a similar manner to previous studies (Shobako et al.) with slight modifications to simulate peptide bioavailability. Each enzyme treatment time was 1 h.

Row | Molecule | effect on the rice-memolin-induced improvement in the novel ORT (mice fed HFD) | stability to digestion by pepsin and pancreatin (pepsin and pancreatin)
1 | CCN1C[C@]2(COC(=O)c3ccccc3N3C(=O)C[C@H](C)C3=O)CC[C@H](OC)[C@@]34[C@@H]5C[C@H]6[C@H](OC)[C@@H]5[C@](O)(C[C@@H]6OC)[C@@](O)([C@@H](OC)[C@H]23)[C@@H]14 [MLA, methyllycaconitine] | inhibited the effects of rice-memolin | –
2 | VYTPG [VYTPG, Val-Tyr-Thr-Pro-Gly] | – | existed even after digestion by pepsin and pancreatin
